The structures appear in SMILES notation. Counter-ions that a name gives are not always drawn. Like-named read-outs stand apart in the source and are kept apart here.

The target of this assay is T1, hNaV1.7 (Homo sapiens, UniProt Q15858).
T1 construct: expressed in transfected cells; host or cells: HEK293
The assay is described as follows: QPatch NaV1.7 assay. It is filed as cell-based. To be noted: HEK293-hNaV1.7 cells, QPatch16x. How it is done: The compounds of the invention were tested in a QPatch NaV1.7 assay.
HEK293-hNaV1.7 cells were grown in DMEM-F12+10% FBS culture media at 37° C. At a confluency of 50-70% cells were dissociated from culture flasks & triturated to ensure unicellular cell suspension; cell density was measured & adjusted to 2-3×10^6 cells/ml. Recordings were obtained using QPatch16x. The external solution was (in mM): NaCl, 128; KCl, 5; MgCl2, 2; CaCl2, 2; Glucose, 30; HEPES, 15; pH 7.3, 305-315 mOsm. Following seal formation and whole-cell access using internal solution (containing in mM: CsF, 135; EGTA/CsOH, 1/5; HEPES 10; NaCl, 10; pH 7.3, 310-320mOsM), voltage pulse protocols were applied. Initially a steady state inactivation voltage protocol was used to determine the half-maximal voltage for steady state inactivation (V1/2 SSI). Two holding voltages were used to determine test drug inhibition: −90 mV, where most of the channels are in a closed state; and V1/2 SSI, where half of the channels are inactivated. Currents were elicited every 10 seconds by stepping to a membrane potential of 0 mV for 20 ms. Four-point cumulative concentration responses were derived by determining the peak current amplitude at each concentration of test drug over 120 second application. Curves were fitted with the Hill equation yielding pIC50 values at −90 mV and V1/2 SSI holding potentials.
A general note: Patch clamp records ionic current or voltage across a cell membrane.

Where [1] appears, read: holding voltage V1/2 SSI, where half of the channels are inactivated, read-out: QP Nav1.7 SSI vhalf pIC50 (converted).
Setting [2] is: holding voltage −90 mV, where most of the channels are in a closed state, read-out: QP Nav1.7 - 90 mV pIC50 (converted).

T1 sequence (Q15858 whole entry): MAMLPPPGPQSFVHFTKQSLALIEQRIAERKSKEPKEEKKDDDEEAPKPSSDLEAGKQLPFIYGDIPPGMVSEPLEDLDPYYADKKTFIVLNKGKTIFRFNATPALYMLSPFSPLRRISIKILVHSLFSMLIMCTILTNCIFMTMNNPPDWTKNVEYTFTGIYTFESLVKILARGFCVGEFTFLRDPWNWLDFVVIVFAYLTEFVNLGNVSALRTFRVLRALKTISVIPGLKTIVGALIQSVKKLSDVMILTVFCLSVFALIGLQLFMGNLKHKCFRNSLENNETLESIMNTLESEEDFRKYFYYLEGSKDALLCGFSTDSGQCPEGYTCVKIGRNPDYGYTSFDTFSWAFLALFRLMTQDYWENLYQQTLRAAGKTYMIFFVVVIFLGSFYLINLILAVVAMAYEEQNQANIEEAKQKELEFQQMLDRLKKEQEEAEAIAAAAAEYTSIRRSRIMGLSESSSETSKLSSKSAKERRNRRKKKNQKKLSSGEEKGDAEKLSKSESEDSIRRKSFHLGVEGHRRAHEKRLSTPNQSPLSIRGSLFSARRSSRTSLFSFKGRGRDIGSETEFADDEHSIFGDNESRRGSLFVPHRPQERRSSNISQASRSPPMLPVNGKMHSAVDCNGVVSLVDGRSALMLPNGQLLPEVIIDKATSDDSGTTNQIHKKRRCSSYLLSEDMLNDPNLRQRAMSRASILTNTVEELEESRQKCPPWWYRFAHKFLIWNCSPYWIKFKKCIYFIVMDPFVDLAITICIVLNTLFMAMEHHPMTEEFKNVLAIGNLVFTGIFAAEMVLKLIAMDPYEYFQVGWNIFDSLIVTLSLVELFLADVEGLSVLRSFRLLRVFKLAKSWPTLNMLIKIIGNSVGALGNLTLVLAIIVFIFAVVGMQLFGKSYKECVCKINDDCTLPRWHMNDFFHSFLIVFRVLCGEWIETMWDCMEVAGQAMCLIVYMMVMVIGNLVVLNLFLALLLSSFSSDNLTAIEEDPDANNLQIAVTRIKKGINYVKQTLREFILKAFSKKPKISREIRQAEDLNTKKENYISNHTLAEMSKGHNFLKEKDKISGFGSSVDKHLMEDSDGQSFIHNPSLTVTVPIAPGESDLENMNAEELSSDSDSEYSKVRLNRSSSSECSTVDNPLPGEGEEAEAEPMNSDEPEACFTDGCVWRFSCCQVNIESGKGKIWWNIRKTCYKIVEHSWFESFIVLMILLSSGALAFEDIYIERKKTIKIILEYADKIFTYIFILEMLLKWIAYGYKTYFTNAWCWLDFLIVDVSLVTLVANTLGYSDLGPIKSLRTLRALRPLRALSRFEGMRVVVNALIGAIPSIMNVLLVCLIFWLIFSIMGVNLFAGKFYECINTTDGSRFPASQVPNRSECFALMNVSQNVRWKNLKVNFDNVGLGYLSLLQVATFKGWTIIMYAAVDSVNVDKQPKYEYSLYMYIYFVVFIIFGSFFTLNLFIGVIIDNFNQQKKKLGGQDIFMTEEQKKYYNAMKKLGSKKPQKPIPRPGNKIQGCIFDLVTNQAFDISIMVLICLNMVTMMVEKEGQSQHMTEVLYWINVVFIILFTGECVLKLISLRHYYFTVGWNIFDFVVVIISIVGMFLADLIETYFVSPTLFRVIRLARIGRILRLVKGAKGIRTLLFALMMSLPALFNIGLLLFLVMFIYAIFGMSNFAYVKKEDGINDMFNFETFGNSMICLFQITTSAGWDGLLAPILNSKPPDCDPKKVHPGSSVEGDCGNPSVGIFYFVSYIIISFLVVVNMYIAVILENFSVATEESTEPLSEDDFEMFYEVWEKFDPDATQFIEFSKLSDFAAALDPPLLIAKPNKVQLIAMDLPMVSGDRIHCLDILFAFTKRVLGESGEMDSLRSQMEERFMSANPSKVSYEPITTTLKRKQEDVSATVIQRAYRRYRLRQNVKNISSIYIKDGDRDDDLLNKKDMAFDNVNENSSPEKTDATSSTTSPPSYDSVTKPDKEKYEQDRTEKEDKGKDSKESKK

In the case of `Cc1cc(-c2ccc(OC(F)(F)F)cc2)nc([C@H]2CC[C@@]3(CCN(C)C3=O)N2)n1` [Example 27, (2R,5S)-7-Methyl-2-[4-methyl-6-[4-(trifluoromethoxy)phenyl]pyrimidin-2-yl]-1,7-diazaspiro[4.4]nonan-6-one hydrochloride], the IC50 by setting is: under setting [1], 10 µM; under setting [2], 63.1 µM.

`Cc1cc(-c2ccc(OC(F)(F)F)cc2)nc([C@@H]2CC[C@@]3(CCN(C)C3=O)N2)n1` [Example 28, (2S,5S)-7-Methyl-2-[4-methyl-6-[4-(trifluoromethoxy)phenyl]pyrimidin-2-yl]-1,7-diazaspiro[4.4]nonan-6-one hydrochloride]: the IC50 was 50.1 µM under setting [1] and 631 µM under setting [2].

As to `Cc1cc(-c2ccc(OC(F)(F)F)cc2)nc([C@@H]2CC[C@]3(CCN(C)C3=O)N2)n1` [Example 29, (2S,5R)-7-Methyl-2-[4-methyl-6-[4-(trifluoromethoxy)phenyl]pyrimidin-2-yl]-1,7-diazaspiro[4.4]nonan-6-one hydrochloride], the IC50 runs as follows: under setting [1], 12.6 µM; under setting [2], 126 µM.

For the molecule `Cc1cc(-c2ccc(OC(F)(F)F)cc2)nc([C@H]2CC[C@]3(CCN(C)C3=O)N2)n1` [Example 30, (2R,5R)-7-Methyl-2-[4-methyl-6-[4-(trifluoromethoxy)phenyl]pyrimidin-2-yl]-1,7-diazaspiro[4.4]nonan-6-one hydrochloride], the IC50 was 20 µM under setting [1] and 316 µM under setting [2].

Take `Cc1cc(-c2cc(OC(F)(F)F)ccc2F)nc([C@@H]2CC[C@@]3(CCN(C)C3=O)N2)n1` [Example 31, (2S,5S)-2-[4-[2-Fluoro-5-(trifluoromethoxy)phenyl]-6-methyl-pyrimidin-2-yl]-7-methyl-1,7-diazaspiro[4.4]nonan-6-one hydrochloride]: the IC50 is, setting by setting: under setting [1], 3.16 µM; under setting [2], 100 µM.

As for `Cc1cc(-c2cc(OC(F)(F)F)ccc2F)nc([C@H]2CC[C@@]3(CCN(C)C3=O)N2)n1` [Example 32, (2R,5S)-2-[4-[2-Fluoro-5-(trifluoromethoxy)phenyl]-6-methyl-pyrimidin-2-yl]-7-methyl-1,7-diazaspiro[4.4]nonan-6-one hydrochloride], the IC50 reads like this: under setting [1], 2.51 µM; under setting [2], 39.8 µM.

As to `Cc1cc(-c2cc(OC(F)(F)F)ccc2F)nc([C@H]2CC[C@]3(CCN(C)C3=O)N2)n1` [Example 33, (2R,5R)-2-[4-[2-Fluoro-5-(trifluoromethoxy)phenyl]-6-methyl-pyrimidin-2-yl]-7-methyl-1,7-diazaspiro[4.4]nonan-6-one hydrochloride], the IC50 is 2 µM under setting [1] and 20 µM under setting [2].

Take `Cc1cc(-c2cc(OC(F)(F)F)ccc2F)nc([C@@H]2CC[C@]3(CCN(C)C3=O)N2)n1` [Example 34, (2S,5R)-2-[4-[2-Fluoro-5-(trifluoromethoxy)phenyl]-6-methyl-pyrimidin-2-yl]-7-methyl-1,7-diazaspiro[4.4]nonan-6-one hydrochloride]: the IC50 is 7.94 µM under setting [1] and 79.4 µM under setting [2].

For `CCOc1ccc(F)c(-c2cc(C)nc([C@H]3CC[C@@]4(CCCNC4=O)N3)n2)c1` [Example 37, hydrochloride], the IC50 runs as follows: under setting [1], 1.58 µM; under setting [2], 15.8 µM.

Consider `CCOc1ccc(F)c(-c2cc(C)nc([C@@H]3CC[C@@]4(CCCNC4=O)N3)n2)c1` [Example 38, hydrochloride], for which the IC50 was 3.16 µM under setting [1] and 50.1 µM under setting [2].

In the case of `Cc1cc(-c2ccc(C(F)(F)F)cc2)nc([C@H]2CC[C@@]3(CCNC3=O)N2)n1` [Example 39, (2R,5S)-2-[4-Methyl-6-[4-(trifluoromethyl)phenyl]pyrimidin-2-yl]-1,7-diazaspiro[4.4]-nonan-6-one hydrochloride], the IC50 runs as follows: under setting [1], 15.8 µM; under setting [2], 126 µM.

Take `Cc1cc(-c2ccc(C(F)(F)F)cc2)nc([C@@H]2CC[C@]3(CCNC3=O)N2)n1` [Example 40, (2S,5R)-2-[4-Methyl-6-[4-(trifluoromethyl)phenyl]-pyrimidin-2-yl]-1,7-diazaspiro[4.4]nonan-6-one hydrochloride]: the IC50 is 31.6 µM under setting [1] and 158 µM under setting [2].

As to `Cc1cc(-c2ccc(C(F)(F)F)cc2)nc([C@@H]2CC[C@@]3(CCNC3=O)N2)n1` [Example 41, (2S,5S)-2-[4-Methyl-6-[4(trifluoromethyl)-phenyl]-pyrimidin-2-yl]-1,7-diazaspiro[4.4]nonan-6-one hydrochloride], the IC50 reads like this: under setting [1], 2.51 µM; under setting [2], 25.1 µM.

For the molecule `Cc1cc(-c2ccc(C(F)(F)F)cc2)nc([C@H]2CC[C@]3(CCNC3=O)N2)n1` [Example 42, (2R,5R)-2-[4-Methyl-6-[4-(trifluoromethyl)phenyl]pyrimidin-2-yl]-1,7-diazaspiro[4.4]nonan-6-one hydrochloride], the IC50 under setting [1] is 50.1 µM and the IC50 under setting [2] is 501 µM.

Regarding `Cc1cc(-c2ccc(C(F)(F)F)cc2)nc([C@H]2CC[C@@]3(CC(C)(C)NC3=O)N2)n1` [Example 43, (2R,5S)-8,8-Dimethyl-2-[4-methyl-6-[4-(trifluoromethyl)phenyl]pyrimidin-2-yl]-1,7-diazaspiro[4.4]nonan-6-one hydrochloride], the IC50 is, setting by setting: under setting [1], 5.01 µM; under setting [2], 31.6 µM.

On to `Cc1cc(-c2ccc(C(F)(F)F)cc2)nc([C@@H]2CC[C@@]3(CC(C)(C)NC3=O)N2)n1` [Example 44, (2S,5S)-8,8-Dimethyl-2-[4-methyl-6-[4-(trifluoromethyl)phenyl]pyrimidin-2-yl]-1,7-diazaspiro[4.4]nonan-6-one hydrochloride], for which the IC50 runs as follows: under setting [1], 39.8 µM; under setting [2], 158 µM.

Consider `Cc1cc(-c2ccc(C(F)(F)F)cc2)nc([C@@H]2CC[C@]3(CC(C)(C)NC3=O)N2)n1` [Example 45, (2S,5R)-8,8-Dimethyl-2-[4-methyl-6-[4-(trifluoromethyl)phenyl]pyrimidin-2-yl]-1,7-diazaspiro[4.4]nonan-6-one hydrochloride], for which the IC50 under setting [1] is 20 µM and the IC50 under setting [2] is 100 µM.

With `Cc1cc(-c2ccc(C(F)(F)F)cc2)nc([C@H]2CC[C@]3(CC(C)(C)NC3=O)N2)n1` [Example 46, (2R,5R)-8,8-Dimethyl-2-[4-methyl-6-[4-(trifluoromethyl)phenyl]pyrimidin-2-yl]-1,7-diazaspiro[4.4]nonan-6-one hydrochloride], the IC50 by setting is: under setting [1], 3.16 µM; under setting [2], 25.1 µM.

These data come from patent US9309254B2, “Pyrimidinyl-diazospiro compounds” (CONVERGENCE PHARMACEUTICALS LIMITED, priority 2012, dated 2016).
